Key:
[1] = test system: IL-17 production in human blood; experiment: Effect on IL-17 production in human blood; type: cell-based; details: 72 h, 10 μM test compound, IL-23 and Dynabeads stimulation, 3 days, read-out: Percent Inhibition at 10 μM (IL-17 production)
Method: Effect on IL-17 Production in Human Blood
The inhibitory effect of the test compound on IL-17 production in human blood was evaluated as follows. First, 150 μL of peripheral blood collected from healthy individuals using heparinized vacuum blood collection tubes was dispensed into each well of a 96-well plate (Corning), and 45 μL of RPMI 1640 medium (Gibco) containing 10% fetal bovine serum (FBS, Hyclone) and 30 μL of the test compound diluted with the medium was added to each well. The plate was then cultured for 30 min at 37° C. Cells were subsequently stimulated by adding 30 μL of 100 ng/mL human IL-23 (R&D) and 45 μL of Dynabeads Human (Invitrogen) to each well and culturing the plate for 3 days at 37° C. In wells without stimulation, 75 μL of RPMI 1640 medium containing 10% FBS was added instead of the IL-23 and Dynabeads solution. After culturing for 3 days, the culture supernatant was collected, and the amount of IL-17 in the supernatant was measured using an IL-17 ELISA kit (R&D).
The results of the above-described measurements (percent inhibition of IL-17 production with 10 μM of the test compound) are shown in Table 4.

[2] = test system: IL-17A gene expression; experiment: Effect on IL-23-induced cytokine expression in mice; type: in vivo, Balb/c mice; details: Mus musculus, 30 min before and 8 hr after IL-23, versus the negative control group, read-out: Percent inhibition of IL-17A gene expression; for inhibition in vivo at 10 mg/kg: dose 10 mg/kg oral
Method: Effect on IL-23-induced Cytokine Expression in Mice
A mouse IL-23 solution (500 ng/10 μL, prepared by Takeda Pharmaceutical Company Limited) or PBS (10 μL, negative control group) was administered intradermally in the ear of Balb/c mice (Charles River Japan, male, 7 weeks old). Twenty-four hr after administration, the ear was resected under isoflurane anesthesia. The test compound was suspended in 0.5% methylcellulose and administered orally 30 min before and 8 hr after IL-23 administration.
RNA extraction from the ear tissue and quantitative PCR were performed as follows. Specifically, ear tissue 5 mm in diameter was punched from an area of the resected ear centering on the IL-23 injection site, and the tissue was immersed in RNAlater (QIAGEN) for at least 18 hr. The RNAlater-treated ear tissue was homogenized in 350 μL of RLT buffer (RNeasy mini kit, QIAGEN) and treated (55° C., 10 min) with Proteinase K (QIAGEN). Total RNA was then extracted according to the RNeasy mini kit protocol. The RNA thus obtained was then reverse transcribed into cDNA using the High-Capacity RNA-to-cDNA kit (Applied Biosystems), and the amount of each cytokine expressions was measured by real-time PCR (Viia7™, Applied Biosystems). The PCR buffer used was TaqMan Fast Advanced Master Mix (Applied Biosystems), and TaqMan Gene Expression Assays (Applied Biosystems) Mm00439618 ml (IL-17A) and 4352341E (β-actin) were used for cytokine gene detection. The IL-17A gene expression level was normalized to the R-actin gene expression level, and the percent inhibition of IL-17A gene expression with the test compound was then calculated.
The results obtained with the above-described method (percent inhibition of IL-17A gene expression with oral administration of the test compound) are shown in Table 5.

[3] = test system: mouse model of IL-23-induced psoriasis; experiment: Effect in a mouse model of IL-23-induced psoriasis; type: in vivo, Balb/c mice; details: dose 30 mg/kg oral twice daily; versus the negative control group
Method: Effect in a Mouse Model of IL-23-induced Psoriasis
Mouse IL-23 (500 ng/15 μL, R&D) or PBS (15 μL, negative control group) was administered intradermally in the ear of Balb/c mice (Charles River Japan, male, 7 weeks old) 5 times every other days. Seven hr after IL-23 administration at 8 days after the initial administration (final administration), the mice were anesthetized with isoflurane, and ear thickness was measured with calipers. After the ear thickness was measured, the ear was resected, tissue 8 mm in diameter was punched from an area centering on the IL-23 injection site, and the tissue was weighed. The punched ear tissue was cut in half, and one half was immersion-fixed in 10% neutral buffer formalin solution for use in histopathological evaluation. The other half was immersed in RNAlater (QIAGEN) for at least 18 hr for use in an evaluation of the IL-17A mRNA expression level. The test compound was suspended in 0.5% methylcellulose and administered orally twice daily on consecutive days from 30 min before the initial IL-23 administration to 30 min before the final IL-23 administration.
The change in ear thickness in this model was evaluated by calculating the difference in measured thickness between before IL-23 administration and 7 hr after the final IL-23 administration. In addition, the formalin-fixed tissue was embedded and sectioned, then stained with hematoxylin-eosin. The degree of acanthosis was then evaluated qualitatively by microscopy (classified with a score of 0 to 4). RNA extraction from the ear tissue and quantitative PCR were performed as follows. […] The RNA thus obtained was reverse transcribed into cDNA using the High-Capacity RNA-to-cDNA kit (Applied Biosystems), and the expression of each gene was measured by real-time PCR (Viia7™, Applied Biosystems). […] The IL-17A gene expression level was normalized to the R-actin gene expression level, and the percent inhibition of IL-17A gene expression with the test compound was then calculated. […]

[4] = target: T1, RORγt (Homo sapiens, UniProt P51449); experiment: RORγt binding test using fluorescent-labeled cholesterol (TR-FRET); details: read-out: Binding inhibitory rate of fluorescent-labeled cholesterol to RORγt at test compound 1 μM (%)
T1 sequence (P51449 1-497 isoform P51449-2): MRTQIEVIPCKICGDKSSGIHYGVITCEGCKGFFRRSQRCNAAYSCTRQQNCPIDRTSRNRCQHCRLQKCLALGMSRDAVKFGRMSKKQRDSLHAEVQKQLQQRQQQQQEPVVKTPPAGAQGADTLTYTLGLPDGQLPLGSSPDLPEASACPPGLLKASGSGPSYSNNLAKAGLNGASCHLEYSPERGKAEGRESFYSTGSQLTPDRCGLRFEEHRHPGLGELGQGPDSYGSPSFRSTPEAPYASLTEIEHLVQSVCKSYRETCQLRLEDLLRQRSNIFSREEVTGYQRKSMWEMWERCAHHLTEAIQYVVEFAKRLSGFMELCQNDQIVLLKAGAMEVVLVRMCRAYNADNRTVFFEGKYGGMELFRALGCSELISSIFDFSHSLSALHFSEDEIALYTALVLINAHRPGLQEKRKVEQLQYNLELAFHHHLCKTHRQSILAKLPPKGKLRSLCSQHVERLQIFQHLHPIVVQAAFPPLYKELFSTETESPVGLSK
Summary of the method: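 TR-FRET displacement with His-tagged RORγt, BODIPY-cholesterol and Tb-anti-His antibody in Tris-HCl pH 7.5, 100 mM NaCl, 1 mM DTT, 0.1% BSA. Compound, RORγt and labelled cholesterol were incubated 20 min at RT, then antibody was added for another 20 min.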

[5] = target: T1, RORγt; experiment: RORγt binding test using fluorescent-labeled synthetic ligand (TR-FRET); details: read-out: Binding inhibitory rate of fluorescent-labeled synthetic ligand to RORγt at test compound 1 μM (%)
Summary of the method: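 His-tagged RORγt (diluted to 240 nM) with compound, then fluorescent synthetic ligand (diluted to 12 μM), 20 min at room temperature, followed by Tb anti-His antibody (diluted to 8 nM), 20 min.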

[6] = target: T1, RORγt; experiment: Cofactor recruitment test (Alpha Screen, biotinylated SRC-1 peptide); type: biochemical; details: read-out: Signal value inhibitory rate at test compound 1 μM (%)
Method: Cofactor Recruitment Test
Cofactor recruitment test was performed by Alpha Screen (Histidine Detection Kit, PerkinElmer) method. First, a test compound was diluted with an assay buffer (50 mM Tris-HCl (pH 7.5), 50 mM KCl, 1 mM DTT, 0.1% BSA) and added to a 384 well plate by 5 μL. […] The mixture was stood in a dark place for 1 hr, and the signal value was measured by Envision (PerkinElmer).

[7] = target: T1, RORγt; experiment: Jurkat reporter test (human IL-17 ROR response element luciferase, RORγt vector); type: cell-based; details: Jurkat, read-out: Luminescence level inhibitory rate at test compound 3 μM (%)
Summary of the method: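 Jurkat cells were electroporated (1350 V, 10 ms, 3 pulses) with reporter constructs, then cultured overnight with compound in RPMI containing 10% lipid-reduced FCS, 10 mM HEPES pH 7.5 and 5 μM lovastatin. Luciferase was quantified by Bright-Glo luminescence after 10 min at room temperature.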

Structure (SMILES) | inhibition at 10 µM [1] [%] | inhibition in vivo at 10 mg/kg [2] [%] | Percent Inhibition of Acanthosis Score [3] [%] | Percent Inhibition of Ear Thickness [3] [%] | Percent Inhibition of IL-17A Expression [3] [%] | inhibition at 1 µM [4] [%] | inhibition at 1 µM [5] [%] | inhibition at 1 µM [6] [%] | inhibition at 3 µM [7] [%] | inhibition in vivo at 30 mg/kg ([2]; dose 30 mg/kg oral) [%]
COc1ccc2c(n1)CCN(C(=O)CCCC(=O)O)[C@H]2C(=O)Nc1cc(F)c2c(c1)CCC2(C)C [Example 118, 5-((5R)-5-((7-fluoro-1,1-dimethyl-2,3-dihydro-1H-inden-5-yl)carbamoyl)-2-methoxy-7,8-dihydro-1,6-naphthyridin-6(5H)-yl)-5-oxopentanoic acid] | 88 | 87 | 80 | 61 | 111 | – | – | – | – | –
COc1ccc2c(n1)CCN(C(=O)CCCC(=O)O)[C@H]2C(=O)Nc1ccc([Si](C)(C)C)c(F)c1 [Example 140, 5-((5R)-5-((3-fluoro-4-(trimethylsilyl)phenyl)carbamoyl)-2-methoxy-7,8-dihydro-1,6-naphthyridin-6(5H)-yl)-5-oxopentanoic acid] | 91 | – | – | – | – | 100 | 101 | 95 | 102 | 90
COc1ccc2c(c1)CCN(C(=O)N1CC(CC(=O)O)C1)[C@H]2C(=O)Nc1cc(F)c([Si](C)(C)C)c(F)c1 [Example 260, (1-(((1R)-1-((3,5-difluoro-4-(trimethylsilyl)phenyl)carbamoyl)-6-methoxy-3,4-dihydroisoquinolin-2(1H)-yl)carbonyl)azetidin-3-yl)acetic acid] | 89 | 76 | – | – | – | – | 102 | 95 | 101 | –
C[Si](C)(C)c1c(F)cc(NC(=O)[C@H]2c3ccc4c(c3CCN2C(=O)N2CC(CC(=O)O)C2)OCO4)cc1F [Example 272, (1-(((6R)-6-((3,5-difluoro-4-(trimethylsilyl)phenyl)carbamoyl)-8,9-dihydro[1,3]dioxolo[4,5-f]isoquinolin-7(6H)-yl)carbonyl)azetidin-3-yl)acetic acid] | 93 | 86 | – | – | – | – | 102 | 101 | 100 | –
